Data taken from US10688200B2, “Urea-based prostate specific membrane antigen (PSMA) inhibitors for imaging and therapy” (Five Eleven Pharma Inc., priority 2015, dated 2020).

Assays:
[1] = test system: PSMA; experiment: In vitro autoradiography of LNCaP tumor and mouse kidney sections; assay type: binding; settings: incubation with 2-PMPA
Protocol: LNCaP tumor and mouse kidneys were cut at 20 μm on a cryostat, thaw-mounted onto slides. Slides are incubated with radiotracers (3 μCi/ml) in PBS for 30 min and washed with PBS twice for 3 min each. After drying, the slides put into a plate for exposure for 30 min. Images were acquired with Typhoon FLA 7000 (GE Healthcare).
To validate the PSMA binding, in vitro autoradiography studies using LNCaP tumor and mouse kidney sections were carried out.
FIGS. 2A-2K show in vitro autoradiography of LNCaP tumor (left side) and mouse kidney sections (right side). […] These new PSMA target compounds, display high uptake in the sections. [^68Ga]1a (PSMA-11) was used as a control.

[2] = Biodistribution of radiotracers in normal mice; assay type: in vivo, mouse; settings: normal male mice
Outline: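 Male CD-1 mice received 35 μCi [^68Ga] radiotracer (0.2 nmole ligand) by tail vein. Four mice per time point sacrificed at 2, 30, 60 and 120 min p.i.; organs and blood weighed and gamma counted. %ID/g calculated against a standard dilution of the dose, decay-corrected.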

[3] = target: T1, PSMA (Homo sapiens, UniProt Q04609); experiment: In vitro binding signals of 68Ga labeled ligands in LNCaP tumor homogenates; settings: Ga-68 radiolabeled ligands; for Nonspecific binding (NSB): with 1a (PSMA11) 10 μM
T1 construct: 100 μL of freshly harvested PSMA cells; endogenous in cells; host or cells: 'PSMA cells' in the method
T1 sequence (Q04609 whole entry): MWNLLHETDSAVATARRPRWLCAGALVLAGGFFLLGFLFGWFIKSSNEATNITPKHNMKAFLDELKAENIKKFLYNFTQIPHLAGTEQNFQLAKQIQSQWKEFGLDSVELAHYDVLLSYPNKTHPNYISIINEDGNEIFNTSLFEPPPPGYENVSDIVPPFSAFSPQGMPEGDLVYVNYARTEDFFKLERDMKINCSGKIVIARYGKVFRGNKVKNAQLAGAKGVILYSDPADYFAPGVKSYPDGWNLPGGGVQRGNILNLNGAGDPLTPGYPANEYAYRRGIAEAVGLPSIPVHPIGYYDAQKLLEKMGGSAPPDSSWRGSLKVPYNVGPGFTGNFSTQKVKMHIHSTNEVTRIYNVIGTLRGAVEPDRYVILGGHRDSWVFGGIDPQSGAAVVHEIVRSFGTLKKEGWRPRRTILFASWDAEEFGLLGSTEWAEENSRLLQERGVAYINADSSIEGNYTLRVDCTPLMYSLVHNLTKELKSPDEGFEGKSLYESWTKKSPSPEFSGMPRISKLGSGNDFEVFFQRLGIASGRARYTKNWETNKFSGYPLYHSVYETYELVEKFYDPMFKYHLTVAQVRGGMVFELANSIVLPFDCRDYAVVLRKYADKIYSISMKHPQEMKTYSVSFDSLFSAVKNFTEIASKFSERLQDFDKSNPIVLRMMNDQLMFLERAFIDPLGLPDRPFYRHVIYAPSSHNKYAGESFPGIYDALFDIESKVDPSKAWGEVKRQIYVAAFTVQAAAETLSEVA

[4] = test system: PSMA expressing LNCaP cells; experiment: Cell uptake comparisons in LNCaP cells (FIG. 1); assay type: cell-based, human; settings: 1 hr at 37° C.
Protocol: Cell uptake studies were performed using PSMA expressing LNCaP cells. Cells were grown in 6 well plates for 2 days. After incubation with ^68Ga-labeled ligands for 1 hr at 37° C., media were removed. After washing twice with 3 mL PBS buffer, cells were lysed with 0.1 N NaOH. Lysed cells were wiped with filter paper and radioactivity in filter paper was measured with a gamma counter.
The LNCaP cells over express PSMA receptor binding sites, the level of binding, % uptake/well, was an indicator of PSMA binding, the higher the better. [^68Ga]1a, a known PSMA imaging agent (PSMA-11), was used as a control.

With “2-(3-mercaptopropyl)pentane-dioic acid [Compound 2-PMPA]” the “Blocking of radiotracer binding in autoradiography, in words” value [1] was “blocked radiotracers' binding to tumor and kidney”.

In the case of O=C(O)CCc1ccc2c(n1)C[N+]13CC[N+]45CC(=O)[O][68Ga-3]14([O]C(=O)C3)([O]2)[O]c1ccc(CCC(=O)NCCCCCC(=O)NCCCC[C@H](NC(=O)N[C@@H](CCC(=O)O)C(=O)O)C(=O)O)nc1C5 (some centres unmarked) [[^68Ga]2], the “Biodistribution: Blood” value ([2]; 2 min) is reported as 8.92 ± 0.75 % dose/g, the “Biodistribution: Bone” value ([2]; 2 min) is reported as 2.18 ± 0.08 % dose/g and the “Biodistribution: Brain” value ([2]; 2 min) is reported as 0.24 ± 0.02 % dose/g. For the same molecule, the “Biodistribution: Heart” value ([2]; 2 min) was 3.40 ± 0.45 % dose/g, the “Biodistribution: Kidney” value ([2]; 2 min) was 56.4 ± 8.05 % dose/g and the “Biodistribution: Liver” value ([2]; 2 min) was 2.01 ± 0.08 % dose/g. The “Biodistribution: Lung” value ([2]; 2 min) was 5.18 ± 0.52 % dose/g, the “Biodistribution: Muscle” value ([2]; 2 min) was 2.00 ± 0.25 % dose/g and the “Biodistribution: Pancreas” value ([2]; 2 min) was 1.85 ± 0.17 % dose/g. For the same molecule, the “Biodistribution: Skin” value ([2]; 2 min) was 3.07 ± 0.05 % dose/g, the “Biodistribution: Spleen” value ([2]; 2 min) was 3.57 ± 0.20 % dose/g and the “Biodistribution: Blood” value ([2]; 30 min) was 1.18 ± 0.15 % dose/g. The “Biodistribution: Bone” value ([2]; 30 min) was 0.48 ± 0.02 % dose/g, the “Biodistribution: Brain” value ([2]; 30 min) was 0.05 ± 0.00 % dose/g and the “Biodistribution: Heart” value ([2]; 30 min) was 0.51 ± 0.03 % dose/g. The “Biodistribution: Kidney” value ([2]; 30 min) was 108 ± 8.66 % dose/g, the “Biodistribution: Liver” value ([2]; 30 min) was 0.33 ± 0.01 % dose/g and the “Biodistribution: Lung” value ([2]; 30 min) was 1.07 ± 0.12 % dose/g. The “Biodistribution: Muscle” value ([2]; 30 min) was 0.46 ± 0.03 % dose/g, the “Biodistribution: Pancreas” value ([2]; 30 min) was 0.76 ± 0.12 % dose/g and the “Biodistribution: Skin” value ([2]; 30 min) was 0.88 ± 0.08 % dose/g. For the same molecule, the “Biodistribution: Spleen” value ([2]; 30 min) was 1.33 ± 0.08 % dose/g, the “Biodistribution: Blood” value ([2]; 60 min) was 0.89 ± 0.10 % dose/g and the “Biodistribution: Bone” value ([2]; 60 min) was 0.43 ± 0.01 % dose/g. The “Biodistribution: Brain” value ([2]; 60 min) was 0.03 ± 0.00 % dose/g, the “Biodistribution: Heart” value ([2]; 60 min) was 0.33 ± 0.02 % dose/g and the “Biodistribution: Kidney” value ([2]; 60 min) was 67.8 ± 15.57 % dose/g. The “Biodistribution: Liver” value ([2]; 60 min) was 0.25 ± 0.06 % dose/g, the “Biodistribution: Lung” value ([2]; 60 min) was 0.72 ± 0.16 % dose/g and the “Biodistribution: Muscle” value ([2]; 60 min) was 0.24 ± 0.01 % dose/g. The “Biodistribution: Pancreas” value ([2]; 60 min) was 0.44 ± 0.08 % dose/g, the “Biodistribution: Skin” value ([2]; 60 min) was 0.46 ± 0.10 % dose/g and the “Biodistribution: Spleen” value ([2]; 60 min) was 0.84 ± 0.24 % dose/g. For the same molecule, the “Biodistribution: Blood” value ([2]; 120 min) was 0.78 ± 0.04 % dose/g, the “Biodistribution: Bone” value ([2]; 120 min) was 0.60 ± 0.03 % dose/g and the “Biodistribution: Brain” value ([2]; 120 min) was 0.03 ± 0.01 % dose/g. The “Biodistribution: Heart” value ([2]; 120 min) was 0.28 ± 0.02 % dose/g, the “Biodistribution: Kidney” value ([2]; 120 min) was 26.9 ± 6.13 % dose/g and the “Biodistribution: Liver” value ([2]; 120 min) was 0.22 ± 0.01 % dose/g. For the same molecule, the “Biodistribution: Lung” value ([2]; 120 min) was 0.45 ± 0.01 % dose/g, the “Biodistribution: Muscle” value ([2]; 120 min) was 0.18 ± 0.01 % dose/g and the “Biodistribution: Pancreas” value ([2]; 120 min) was 0.30 ± 0.04 % dose/g. The “Biodistribution: Skin” value ([2]; 120 min) was 0.29 ± 0.03 % dose/g, the “Biodistribution: Spleen” value ([2]; 120 min) was 0.36 ± 0.04 % dose/g and the “Specific binding (SB) SB = TB − NSB” value [3] was “lower specific binding”. For the same molecule, the “Nonspecific binding (NSB)” value [3] was “high nonspecific binding” and the “Cell uptake (% uptake/well), in words” value [4] was “low cell uptakes”.

For O=C(O)CC[C@H](NC(=O)N[C@@H](CCCCNC(=O)CCCCCNC(=O)CCc1ccc2c(n1)C[N+]13CC[N+]45CC(=O)[O][68Ga-3]14([O]C(=O)C3)([O]2)[O]c1ccc(CCC(=O)NCCCCCC(=O)NCCCC[C@H](NC(=O)N[C@@H](CCC(=O)O)C(=O)O)C(=O)O)nc1C5)C(=O)O)C(=O)O (some centres unmarked) [[^68Ga]3], the “Biodistribution: Blood” value ([2]; 2 min) was 8.94 ± 1.57 % dose/g, the “Biodistribution: Bone” value ([2]; 2 min) was 3.53 ± 0.96 % dose/g and the “Biodistribution: Brain” value ([2]; 2 min) was 0.33 ± 0.06 % dose/g. For the same molecule, the “Biodistribution: Heart” value ([2]; 2 min) was 4.34 ± 1.15 % dose/g, the “Biodistribution: Kidney” value ([2]; 2 min) was 56.2 ± 6.53 % dose/g and the “Biodistribution: Liver” value ([2]; 2 min) was 3.42 ± 0.11 % dose/g. The “Biodistribution: Lung” value ([2]; 2 min) was 7.49 ± 2.71 % dose/g, the “Biodistribution: Muscle” value ([2]; 2 min) was 2.02 ± 0.74 % dose/g and the “Biodistribution: Pancreas” value ([2]; 2 min) was 2.89 ± 0.61 % dose/g. The “Biodistribution: Skin” value ([2]; 2 min) was 2.63 ± 0.48 % dose/g, the “Biodistribution: Spleen” value ([2]; 2 min) was 5.14 ± 1.49 % dose/g and the “Biodistribution: Blood” value ([2]; 30 min) was 3.19 ± 0.72 % dose/g. The “Biodistribution: Bone” value ([2]; 30 min) was 1.70 ± 0.20 % dose/g, the “Biodistribution: Brain” value ([2]; 30 min) was 0.09 ± 0.01 % dose/g and the “Biodistribution: Heart” value ([2]; 30 min) was 0.93 ± 0.22 % dose/g. For the same molecule, the “Biodistribution: Kidney” value ([2]; 30 min) was 94.4 ± 13.7 % dose/g, the “Biodistribution: Liver” value ([2]; 30 min) was 1.71 ± 0.05 % dose/g and the “Biodistribution: Lung” value ([2]; 30 min) was 1.38 ± 0.17 % dose/g. The “Biodistribution: Muscle” value ([2]; 30 min) was 1.53 ± 0.68 % dose/g, the “Biodistribution: Pancreas” value ([2]; 30 min) was 1.36 ± 0.32 % dose/g and the “Biodistribution: Skin” value ([2]; 30 min) was 1.48 ± 0.34 % dose/g. The “Biodistribution: Spleen” value ([2]; 30 min) was 4.35 ± 0.37 % dose/g, the “Biodistribution: Blood” value ([2]; 60 min) was 1.52 ± 0.44 % dose/g and the “Biodistribution: Bone” value ([2]; 60 min) was 2.34 ± 1.08 % dose/g. The “Biodistribution: Brain” value ([2]; 60 min) was 0.06 ± 0.04 % dose/g, the “Biodistribution: Heart” value ([2]; 60 min) was 0.82 ± 0.22 % dose/g and the “Biodistribution: Kidney” value ([2]; 60 min) was 61.3 ± 5.97 % dose/g. The “Biodistribution: Liver” value ([2]; 60 min) was 1.81 ± 0.14 % dose/g, the “Biodistribution: Lung” value ([2]; 60 min) was 1.29 ± 0.31 % dose/g and the “Biodistribution: Muscle” value ([2]; 60 min) was 1.01 ± 0.29 % dose/g. The “Biodistribution: Pancreas” value ([2]; 60 min) was 1.34 ± 0.45 % dose/g, the “Biodistribution: Skin” value ([2]; 60 min) was 2.35 ± 0.34 % dose/g and the “Biodistribution: Spleen” value ([2]; 60 min) was 1.75 ± 0.17 % dose/g. For the same molecule, the “Biodistribution: Blood” value ([2]; 120 min) was 1.00 ± 0.30 % dose/g, the “Biodistribution: Bone” value ([2]; 120 min) was 3.56 ± 1.08 % dose/g and the “Biodistribution: Brain” value ([2]; 120 min) was 0.05 ± 0.02 % dose/g. For the same molecule, the “Biodistribution: Heart” value ([2]; 120 min) was 0.84 ± 0.20 % dose/g, the “Biodistribution: Kidney” value ([2]; 120 min) was 30.3 ± 8.87 % dose/g and the “Biodistribution: Liver” value ([2]; 120 min) was 2.00 ± 0.20 % dose/g. The “Biodistribution: Lung” value ([2]; 120 min) was 0.97 ± 0.12 % dose/g, the “Biodistribution: Muscle” value ([2]; 120 min) was 1.13 ± 0.50 % dose/g and the “Biodistribution: Pancreas” value ([2]; 120 min) was 1.21 ± 0.19 % dose/g. For the same molecule, the “Biodistribution: Skin” value ([2]; 120 min) was 1.22 ± 0.20 % dose/g, the “Biodistribution: Spleen” value ([2]; 120 min) was 1.71 ± 0.56 % dose/g and the “Specific binding (SB) SB = TB − NSB” value [3] was “lower specific binding”. The “Nonspecific binding (NSB)” value [3] was “high nonspecific binding” and the “Cell uptake (% uptake/well), in words” value [4] was “low cell uptakes”.
